Measurements reported in paper PMC8597724, “Kanglemycin A Can Overcome Rifamycin Resistance Caused by ADP-Ribosylation by Arr Protein” (Antimicrobial Agents and Chemotherapy, 2021).

Molecular target: T1, ArrMab (Mycobacteroides abscessus, UniProt B1MH05)
T1 construct: gene MAB_0591; N-terminal 6xHis tag (pET28), expressed in E. coli T7 Express; RED-NHS amine-labelled for MST
Assay: microscale thermophoresis
Format: binding
Description: microscale thermophoresis on ArrMab | ArrMab bound both antibiotics with the same Kd

T1 sequence (B1MH05 entry or part of it): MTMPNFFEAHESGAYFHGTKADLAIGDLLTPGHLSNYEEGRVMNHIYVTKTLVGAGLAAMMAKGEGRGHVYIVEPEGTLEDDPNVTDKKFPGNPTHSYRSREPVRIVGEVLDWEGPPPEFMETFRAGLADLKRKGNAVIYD

CO[C@H]1/C=C/O[C@@]2(C)Oc3c(C)c(O)c4c(O)c(c(/C=N/N5CCN(C)CC5)c(O)c4c3C2=O)NC(=O)/C(C)=C\C=C\[C@H](C)[C@H](O)[C@@H](C)[C@@H](O)[C@@H](C)[C@H](OC(C)=O)[C@@H]1C [rifampicin]
Kd: 27.9 µM
